Read-outs that look alike come from different tables or passages of the source.
Experiments:
OR5B12 = target: T1, OR5B12 (Homo sapiens, UniProt Q96R08); experiment: OR5B12 cell-based cAMP HTRF assay; conditions: dose-response; 100% = full agonist
T1 construct: Lucy (cleavable signal peptide) (N); FLAG (N); Rho (first 20 aa of bovine rhodopsin) (N); expressed in transfected cells
T1 sequence (Q96R08 1-314): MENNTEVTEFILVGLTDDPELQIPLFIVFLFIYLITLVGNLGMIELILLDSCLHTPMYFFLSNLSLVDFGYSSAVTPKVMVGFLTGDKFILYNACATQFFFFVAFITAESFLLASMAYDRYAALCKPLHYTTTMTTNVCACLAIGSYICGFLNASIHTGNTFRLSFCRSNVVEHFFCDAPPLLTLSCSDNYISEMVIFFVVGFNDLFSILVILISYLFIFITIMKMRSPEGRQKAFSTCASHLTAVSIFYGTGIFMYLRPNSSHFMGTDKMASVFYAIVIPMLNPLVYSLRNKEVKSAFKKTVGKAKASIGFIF

OR5A1 = target: T2, OR5A1 (Homo sapiens, UniProt Q8NGJ0); experiment: OR5A1 cell-based cAMP HTRF assay
T2 construct: Lucy (cleavable signal peptide) (N); FLAG (N); Rho (first 20 aa of bovine rhodopsin) (N); expressed in transfected cells
T2 sequence (Q8NGJ0 1-315): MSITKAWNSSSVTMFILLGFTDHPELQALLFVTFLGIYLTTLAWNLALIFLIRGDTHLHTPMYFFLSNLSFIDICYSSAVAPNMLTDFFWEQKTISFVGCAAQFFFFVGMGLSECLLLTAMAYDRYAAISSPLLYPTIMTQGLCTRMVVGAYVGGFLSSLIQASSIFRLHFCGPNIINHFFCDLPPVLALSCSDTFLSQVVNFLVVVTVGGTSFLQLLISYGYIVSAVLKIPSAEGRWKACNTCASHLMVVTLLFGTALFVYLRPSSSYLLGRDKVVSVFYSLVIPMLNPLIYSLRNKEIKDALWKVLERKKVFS

OR7A17 = target: T3, OR7A17 (Homo sapiens, UniProt O14581); experiment: OR7A17 cell-based cAMP HTRF assay; conditions: FIG. 1
T3 construct: Lucy (cleavable signal peptide) (N); FLAG (N); Rho (first 20 aa of bovine rhodopsin) (N); expressed in transfected cells
T3 sequence (O14581 1-309): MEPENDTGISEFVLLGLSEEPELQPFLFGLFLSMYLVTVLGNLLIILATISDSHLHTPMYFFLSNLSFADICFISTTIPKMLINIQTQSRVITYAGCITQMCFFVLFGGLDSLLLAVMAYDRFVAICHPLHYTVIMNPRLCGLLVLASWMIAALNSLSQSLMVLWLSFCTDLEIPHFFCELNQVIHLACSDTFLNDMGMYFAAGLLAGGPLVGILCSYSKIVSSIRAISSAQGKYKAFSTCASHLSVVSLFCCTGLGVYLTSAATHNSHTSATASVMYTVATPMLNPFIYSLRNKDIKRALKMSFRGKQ

OR8D1 = target: T4, OR8D1 (Homo sapiens, UniProt Q8WZ84); experiment: OR8D1 cell-based cAMP HTRF assay; conditions: dose-response, 100% = full agonist; for Emax: read-out: OR8D1 % Efficacy
T4 construct: Lucy (cleavable signal peptide) (N); FLAG (N); Rho (first 20 aa of bovine rhodopsin) (N); expressed in transfected cells
T4 sequence (Q8WZ84 1-308): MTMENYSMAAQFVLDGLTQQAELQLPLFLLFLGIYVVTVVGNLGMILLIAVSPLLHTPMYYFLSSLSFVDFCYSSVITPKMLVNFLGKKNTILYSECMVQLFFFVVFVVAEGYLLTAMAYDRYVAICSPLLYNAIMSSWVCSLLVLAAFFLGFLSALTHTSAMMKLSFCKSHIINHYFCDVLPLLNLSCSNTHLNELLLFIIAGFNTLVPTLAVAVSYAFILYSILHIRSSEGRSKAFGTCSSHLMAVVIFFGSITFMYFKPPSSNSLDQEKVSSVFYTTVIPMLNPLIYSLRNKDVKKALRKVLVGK

OR1N2 = target: T5, OR1N2 (Homo sapiens, UniProt Q8NGR9, T287M/V230G/W23R); experiment: OR1N2 cell-based cAMP HTRF assay; conditions: read-out: OR1N2 % Efficacy
T5 construct: Lucy (cleavable signal peptide) (N); FLAG (N); Rho (first 20 aa of bovine rhodopsin) (N); expressed in transfected cells
T5 sequence (Q8NGR9 1-316 W23R/V230G/T287M): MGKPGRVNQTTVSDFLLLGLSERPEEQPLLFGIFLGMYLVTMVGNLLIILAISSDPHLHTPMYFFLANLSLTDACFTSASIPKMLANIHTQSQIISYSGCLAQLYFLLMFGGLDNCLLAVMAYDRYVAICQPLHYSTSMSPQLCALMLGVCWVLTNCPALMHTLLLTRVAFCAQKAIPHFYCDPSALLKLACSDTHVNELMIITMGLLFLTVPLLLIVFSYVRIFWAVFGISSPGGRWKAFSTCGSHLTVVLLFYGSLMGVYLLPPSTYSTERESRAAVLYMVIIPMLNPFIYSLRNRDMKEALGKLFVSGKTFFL

OR10J5 = target: T6, OR10J5 (Homo sapiens, UniProt Q8NHC4); experiment: OR10J5 cell-based cAMP HTRF assay; conditions: for Emax: read-out: OR10J5 % Efficacy
T6 construct: Lucy (cleavable signal peptide) (N); FLAG (N); Rho (first 20 aa of bovine rhodopsin) (N); expressed in transfected cells
T6 sequence (Q8NHC4 1-309): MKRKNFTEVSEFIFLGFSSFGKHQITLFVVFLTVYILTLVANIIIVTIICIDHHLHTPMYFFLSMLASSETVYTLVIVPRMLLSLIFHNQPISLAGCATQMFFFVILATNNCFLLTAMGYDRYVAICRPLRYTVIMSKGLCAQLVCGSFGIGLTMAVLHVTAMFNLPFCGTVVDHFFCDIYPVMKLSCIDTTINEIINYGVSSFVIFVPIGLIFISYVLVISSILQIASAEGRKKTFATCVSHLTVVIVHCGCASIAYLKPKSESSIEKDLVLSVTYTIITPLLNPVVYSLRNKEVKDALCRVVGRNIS

OR5AN1 = target: T7, OR5AN1 (Homo sapiens, UniProt Q8NGI8); experiment: OR5AN1 cell-based cAMP HTRF assay; conditions: for Emax: read-out: OR5AN1 % Efficacy
T7 construct: Lucy (cleavable signal peptide) (N); FLAG (N); Rho (first 20 aa of bovine rhodopsin) (N); expressed in transfected cells
T7 sequence (Q8NGI8 1-311): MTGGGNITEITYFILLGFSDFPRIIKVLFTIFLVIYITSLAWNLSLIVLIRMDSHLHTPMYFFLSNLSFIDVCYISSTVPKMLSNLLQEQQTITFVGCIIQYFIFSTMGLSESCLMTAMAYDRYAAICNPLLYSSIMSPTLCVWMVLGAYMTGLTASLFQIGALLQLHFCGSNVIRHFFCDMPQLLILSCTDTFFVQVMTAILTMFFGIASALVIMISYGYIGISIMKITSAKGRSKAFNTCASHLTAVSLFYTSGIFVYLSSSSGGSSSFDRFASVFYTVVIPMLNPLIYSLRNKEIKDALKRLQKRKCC

OR1C1 = target: T8, OR1C1 (Homo sapiens, UniProt Q15619); experiment: OR1C1 cell-based cAMP HTRF assay; conditions: dose-response; 100% = full agonist; read-out: OR1C1 % Efficacy
T8 construct: Lucy (cleavable signal peptide) (N); FLAG (N); Rho (first 20 aa of bovine rhodopsin) (N); expressed in transfected cells
T8 sequence (Q15619 1-314): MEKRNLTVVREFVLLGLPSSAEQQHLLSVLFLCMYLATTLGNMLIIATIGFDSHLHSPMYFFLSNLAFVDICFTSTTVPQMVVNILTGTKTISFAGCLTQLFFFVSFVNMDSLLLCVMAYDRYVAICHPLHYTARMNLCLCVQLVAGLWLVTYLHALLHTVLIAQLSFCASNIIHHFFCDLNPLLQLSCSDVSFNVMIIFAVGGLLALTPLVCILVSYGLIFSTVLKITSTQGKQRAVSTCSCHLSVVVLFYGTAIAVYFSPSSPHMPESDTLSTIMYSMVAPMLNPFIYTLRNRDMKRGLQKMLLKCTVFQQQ

[1] = dose-response, 100% = full agonist

“methyl 2-[(1~{S},2~{S})-3-oxo-2-pentylcyclopentyl]acetate; methyl 2-[(1~{R},2~{S})-3-oxo-2-pentylcy clopentyl]acetate [Jasmodione]” was tested. Which “OR5B12 % Efficacy” value (OR5B12) did it give?
Its value is 98%.

What does the source list for CC(=O)C=CC1=C(C)CCCC1(C)C [Beta-ionone, 4-(2,6,6-trimethylcyclohexen-1-yl)but-3-en-2-one]?
activation of OR5A1 (violet tonality) (OR5A1; FIG. 1): activation; Emax (OR5A1; dose-response, 100% = full agonist, read-out: OR5A1 % Efficacy): 100%; activation of OR7A17 (blonde woody tonality) (OR7A17): activation

For CC1=C(O)C(=O)OC1C (stereo not drawn) [Sotolone, 4-hydroxy-2,3-dimethyl-2~{H}-furan-5-one], which “OR8D1 % Efficacy” value (OR8D1) is on record?
Its value is 100%.

Which Emax (OR1N2) does the source give for O=C1CCCCCCCC=CCCCCCCC1 [Civetone, cycloheptadec-9-en-1-one] here?
The Emax was 94%.

For CCC1OC(=O)C(O)=C1C (stereo not drawn) [Maple Furanone, 2-ethyl-4-hydroxy-3-methyl-2~{H}-furan-5-one], which “OR8D1 % Efficacy” value (OR8D1) is on record?
Its value is 100%.

For CC(C)CC1CC(C)(O)CCO1 (stereo not drawn) [Florol, 4-methyl-2-(2-methylpropyl)oxan-4-ol], which Emax (OR10J5; [1]) is on record?
Its Emax is 40%.

For CC(C)(O)CCCC1=CCC(C=O)CC1 (stereo not drawn) [Lyral, 3-(4-hydroxy-4-methylpentyl)cyclohex-3-ene-1-carbaldehyde; 4-(4-hydroxy-4-methylpentyl)cyclohex-3-ene-1-carbaldehyde], which Emax (OR10J5) is on record?
Its Emax is 100%.

Which Emax (OR5AN1; [1]) does the source give for CC(=O)c1c(C)c([N+](=O)[O-])c(C(C)(C)C)c([N+](=O)[O-])c1C [Musk ketone, 1-(4-~{tert}-butyl-2,6-dimethyl-3,5-dinitrophenyl)ethanone] here?
The Emax was 100%.

Which Emax (OR10J5; [1]) does the source give for CC(=CCCC=O)CCCC(C)(C)O [Mahonial, 9-hydroxy-5,9-dimethyldec-4-enal] here?
The Emax was 96%.

With C=CC(C)(O)CCCC(C)C (stereo not drawn) [Dihydrolinalool, 3,7-dimethyloct-1-en-3-ol] as the compound, how does the Emax (OR1C1) read?
Its Emax is 95%.

Which Emax (OR10J5; [1]) does the source give for Cc1ccc2c(c1)CC(C)(CO)C2 (stereo not drawn) [Lilyflore, (2,5-dimethyl-1,3-dihydroinden-2-yl)methanol] here?
Its Emax is 58%.

Which Emax (OR8D1) does the source give for CCCC1CC(=O)C=C(C)C1 (stereo not drawn) [Celery ketone, 3-methyl-5-propylcyclohex-2-en-1-one] here?
Its Emax is 76%.

With “3-methylcyclopentadec-4-en-1-one; 3-methylcyclopentadec-5-en-1-one [Muscenone delta]” as the compound, how does the “OR5AN1 % Efficacy” value (OR5AN1; [1]) read?
The value was 86%.

With O=C1CCC=CCCCCCCCCCC1 [Exaltenone, cyclopentadec-4-en-1-one] as the compound, how does the Emax (OR5AN1; [1]) read?
Its Emax is 86%.

With CCC(C)(O)CCCC(C)C (stereo not drawn) [Tetralinol, 3,7-dimethyloctan-3-ol] as the compound, how does the Emax (OR1C1) read?
Its Emax is 79%.

CC1=C(O)C(=O)CC1 [Cyclotone, 2-hydroxy-3-methylcyclopent-2-en-1-one] was tested. Which Emax (OR8D1) did it give?
The Emax was 97%.

C[C@@H]1CCCCCCCCCCCCC(=O)C1 [Muscone, (R)-3-methylcyclopentadecanone] was tested. Which Emax (OR5AN1; [1]) did it give?
The Emax was 75%.

Which “OR5B12 % Efficacy” value (OR5B12) does the source give for CCCCC[C@@H]1C(=O)CC[C@@H]1CC(=O)OC [Hedione, methyl 2-[(1~{R},2~{S})-3-oxo-2-pentylcyclopentyl]acetate] here?
The value was 86%.

How did the Emax (OR8D1) turn out when CCC=C1OC(=O)c2ccccc21 [Propylidene phthalide, 3-propylidene-2-benzofuran-1-one] was run?
Its Emax is 80%.

With “methyl 2-[[3-(4-hydroxy-4-methylpentyl)cyclohex-3-en-1-ylidene]methylamino]benzoate; methyl 2-[[4-(4-hydroxy-4-methylpentyl)cyclohex-3 -en-1-ylidene]methylamino]benzoate [Lyronol 50 dipg]” as the compound, how does the “OR10J5 % Efficacy” value (OR10J5; [1]) read?
The value was 100%.

With O=C1CCCCCCCC=CCCCCCCO1 [Ambrettolide, 1-oxacycloheptadec-10-en-2-one] as the compound, how does the Emax (OR1N2; [1]) read?
The Emax was 100%.

For C=CC(C)(O)CCC=C(C)C (stereo not drawn) [Linalool, 3,7-dimethylocta-1,6-dien-3-ol], which Emax (OR1C1) is on record?
Its Emax is 100%.

How did the “OR5AN1 % Efficacy” value (OR5AN1) turn out when Cc1c([N+](=O)[O-])c(C)c([N+](=O)[O-])c(C(C)(C)C)c1[N+](=O)[O-] [Musk xylol, 1-~{tert}-butyl-3,5-dimethyl-2,4,6-trinitrobenzene] was run?
The value was 97%.

For O=C1CCCCCCCCCCCC(=O)OCCO1 [Astrotone, 1,4-dioxacycloheptadecane-5,17-dione], which Emax (OR1N2; [1]) is on record?
The Emax was 59%.

Which Emax (OR1C1) does the source give for C=CC(C)(O)CCC=C(C)CC (stereo not drawn) [Ethyl Linalool, 3,7-dimethylnona-1,6-dien-3-ol] here?
The Emax was 99%.
